In patent publication US20160052898A1, “NOVEL COMPOUNDS” (BAYER PHARMA AKTIENGESELLSCHAFT, priority 2013, published 2016):
Where two headings read alike, the source gives them in different places.

Assays:
[1] = test system: constitutive active colorectal cancer cell (CRC) Wnt pathway; assay: HCT116 Super TopFlash cellular reporter assay (constitutive active Wnt pathway); type: cell-based; settings: HCT116 TOP reporter cells, luciferase expression, 36 hours incubation, 50 μM to 15 nM
Procedure: In order to discover and characterize small molecules which inhibit the constitutive active colorectal cancer cell (CRC) Wnt pathway, a cellular reporter assay was employed. The corresponding assay cell was generated by transfection of the colorectal cancer cell line HCT116 (ATCC, #CCL-247) with the Super TopFlash vector (Morin, Science 275, 1997, 1787-1790; Molenaar et al., Cell 86 (3), 1996, 391-399). The HCT116 cell line is cultivated at 37° C. and 5% CO2 in DMEM/F-12 (Life Technologies, #11320-074), supplemented with 2 mM glutamine, 20 mM HEPES, 1.4 mM pyruvate, 0.15% Na-bicarbonate and 10% foetal bovine serum (GIBCO, #10270), this cancer cell line is pathophysiological relevant since it carries a deletion of position S45 in the β-catenin gene, leading to constitutive active Wnt signaling. Stable transfectants were generated by cotransfection with pcDNA3 and selection of stable transfected cells with 1 mg/ml G418.
(§1) In a parallel approach, HCT116 cells were cotransfected with the FOP control vector and pcDNA3. The FOP vector is identical to the TOP construct, but it contains instead of functional TCF elements a randomized, non-functional sequence. For this transfection a stable transfected cell line was generated as well.
(§2) In preparation of the assay, the two cell lines were plated 24 hrs before at 10000 cells per well of a 384 micro titre plate (MTP) in 30 μL growth medium. Selective inhibitory activity for small molecules on the mutated Wnt pathway was determined after parallel incubation of both (TOP and FOP) HCT116 reporter cell lines with a compound dilution series from 50 μM to 15 nM in steps of 3.16-fold dilutions in CAFTY buffer (130 mM NaCl, 5 mM KCl, 20 mM HEPES, 1 mM MgCl2, 5 mM NaHCO3, pH 7.4) containing 2 mM Ca^2+ and 0.01% BSA. The compounds were thereby serially prediluted in 100% DMSO and thereafter in addition 50 fold into the CAFTY compound dilution buffer (described above). From this dilution 10 μL were added to the cells in 30 μL growth medium and incubated for 36 hours at 37° C. and 5% CO2. Thereafter luciferase assay buffer (1:1 mixture of luciferase substrate buffer (20 mM Tricine, 2.67 mM MgSO4, 0.1 mM EDTA, 4 mM DTT, 270 μM Coenzyme A, 470 μM Luciferin, 530 μM ATP, ph adjusted to pH 7.8 with a sufficient volume of 5M NaOH) and Triton buffer (30 mL Triton X-100, 115 mL glycerol, 308 mg Dithiothreitol, 4.45 g Na2HPO4.2 H2O, 3.03 g Tris.HCL, ad 1 l H20, pH 7.8) was added as equal volume to the compound solution on the cells to determine luciferase expression as a measure of Wnt signaling activity in a luminometer.

[2] = test system: HCT116 FOP control reporter cell line; assay: HCT116 FOP control vector reporter assay (non-functional TCF elements); type: cell-based; settings: HCT116 FOP control reporter cells, luciferase expression, 36 hours incubation, 50 μM to 15 nM, read-out: HCT116 FOPFlash IC50
Procedure: as §1, §2

Row | IC50 ([1]; Homo sapiens, HCT-116, 36 h) | IC50 ([2]; Homo sapiens, HCT-116, 36 h) | IC50 [1] | IC50 [2] | Compound
1 | 2.48 µM | ≥ 50 µM |  |  | COc1ccc(C(=O)Nc2ccc(-c3ccccc3)cc2)cc1NC(=O)C1(N2CCOCC2)CCC1 [Example 206, N-(biphenyl-4-yl)-4-methoxy-3-({[1-(morpholin-4-yl)cyclobutyl)carbonyl}amino)benzamide]
2 | 2.5 µM | ≥ 50 µM |  |  | COc1ccc(NC(=O)c2ccc(-c3ccccc3)cc2)cc1NC(=O)CCN1CCOCC1 [Example 141, N-(4-methoxy-3-{[3-(morpholin-4-yl)propanoyl]amino}phenyl) biphenyl-4-carboxamide]
3 | 0.344 µM | ≥ 50 µM |  |  | O=C(CN1CCOCC1)Nc1cc(NC(=O)c2ccc(-c3ccccc3)cc2)ccc1C(F)(F)F [Example 183, N-{3-[(morpholin-4-ylacetyl)amino]-4-(trifluoromethyl)phenyl} biphenyl-4-carboxamide]
4 |  |  | 0.301 µM | ≥ 50 µM | CC(C(=O)Nc1cc(NC(=O)c2ccc(-c3ccccc3)cc2)ccc1C(F)(F)F)N1CCOCC1 (single isomer, unassigned) [Example 180, N-(3-{[(2S*)-2-(morpholin-4-yl)propanoyl]amino}-4-(trifluoromethyl)phenyl] biphenyl-4-carboxamide]
5 | 0.0795 µM | 30 µM |  |  | COCCCOCc1ccc(C(=O)Nc2ccc(-c3ccccc3)cc2)cc1NC(=O)C(C)N1CCOCC1 (stereo not shown) [Example 160, N-(biphenyl-4-yl)-4-[(3-methoxypropoxy)methyl]-3-([2-(morpholin-4-yl)propanoyl]amino} benzamide]
6 | 3.3 µM | ≥ 50 µM |  |  | COc1cccc(CC(=O)Nc2cc(NC(=O)c3ccc(-c4ccccc4)cc3)ccc2OC)c1 [Example 143, N-(4-methoxy-3-{[(3-methoxyphenyl}acetyl]amino}phenyl)biphenyl-4-carboxamide]
7 | 0.366 µM | 6.5 µM |  |  | C[S+]([O-])c1ccc(C(=O)Nc2ccc(-c3ccccc3)cc2)cc1NC(=O)CN1CCOCC1 (stereo not shown) [Example 110, N-(biphenyl-4-yl)-4-(methylsulfinyl)-3-[(morpholin-4-ylacetyl)amino]benzamide]
8 | 0.0498 µM | ≥ 50 µM |  |  | CC(C)NC(=O)c1ccc(C(=O)Nc2ccc(-c3ccccc3)cc2)cc1NC(=O)CN1CCOCC1 [Example 155, N^4-(biphenyl-4-yl)-2-[(morpholin-4-ylacetyl)amino]-N^1-(propan-2-yl)benzene-1,4-dicarboxamide]
9 | 2.6 µM | ≥ 50 µM |  |  | COc1ccc(C(=O)Nc2ccc(-c3ccccc3)cc2)cc1NC(=O)CN1CC(OC)C1 [Example 207, N-(biphenyl-4-yl)-4-methoxy-3-{[(3-methoxyazetidin-1-yl)acetyl]amino}benzamide]
10 | 1.06 µM | ≥ 50 µM |  |  | COc1ccc(NC(=O)c2ccc(-c3ccccc3)cc2)cc1NC(=O)CN1CCO[C@@H](CO)C1 [Example 34, N-[3-({[(2R)-2-(hydroxymethyl)morpholin-4-yl]acetyl}amino)-4-methoxyphenyl]biphenyl-4-carboxamide]
11 | 0.568 µM | ≥ 50 µM |  |  | O=C(CN1C[C@H]2C[C@@H]1CO2)Nc1cc(C(=O)Nc2ccc(-c3ccccc3)cc2)ccc1C(F)(F)F [Example 190, N-(biphenyl-4-yl)-3-{[(1R,4R)-2-oxa-5-azabicyclo[2.2.1]hept-5-ylacetyl]amino}-4-(trifluoromethyl)benzamide]
12 | 0.265 µM | 15 µM |  |  | COCCOCc1ccc(C(=O)Nc2ccc(-c3ccccc3)cc2)cc1NC(=O)C(C)N1CCOCC1 (single isomer, unassigned) [Example 177, N-(biphenyl-4-yl)-4-[(2-methoxyethoxy)methyl)-3-{[(2S*)-2-(morpholin-4-yl)propanoyl)amino} benzamide]
13 | 4.8 µM | ≥ 50 µM |  |  | COc1ccc(NC(=O)c2ccc(-c3ccccc3)cc2)cc1NC(=O)CC1CCCCC1 [Example 145, N-{3-((cyclohexylacetyl)amino]-4-methoxyphenyl}biphenyl-4-carboxamide]
14 | 0.17 µM | ≥ 50 µM |  |  | O=C(CN1CC2CCC(C1)O2)Nc1cc(C(=O)Nc2ccc(-c3ccccc3)cc2)ccc1C(F)(F)F [Example 10, N-(biphenyl-4-yl)-3-[(8-oxa-3-azabicyclo[3.2.1]oct-3-ylacetyl)amino]-4-(trifluoromethyl)benzamide]
15 | 0.011 µM | ≥ 50 µM |  |  | COCCOc1ccc(C(=O)Nc2ccc(-c3ccccc3)cc2)cc1NC(=O)C1(N2CCOCC2)CC1 [Example 218, N-(biphenyl-4-yl)-4-(2-methoxyethoxy)-3-({[1-(morpholin-4-yl)cyclopropyl]carbonyl)amino)benzamide]
16 | 0.26 µM | 3.42 µM |  |  | COCCCOCc1ccc(C(=O)Nc2ccc(-c3ccccc3)cc2)cc1NC(=O)CN1CC2CCC(C1)O2 [Example 176, N-(biphenyl-4-yl)-4-[(3-methoxypropoxy)methyl]-3-[(8-oxa-3-azabicyclo[3.2.1]oct-3-ylacetyl)amino]benzamide]
17 | 0.4 µM | ≥ 50 µM |  |  | COc1ccc(C(=O)Nc2ccc(-c3cc(F)cc(F)c3)c(F)c2)cc1NC(=O)CN1CCOCC1 [Example 123, 4-methoxy-3-[(morpholin-4-ylacetyl)amino]-N-(2,3′,5′-trifluorobiphenyl-4-yl)benzamide]
18 | 3.6 µM | ≥ 50 µM |  |  | COc1ccc(C(=O)Nc2ccc(-c3ccccc3)cc2)cc1N(C)C(=O)CN1CC2CCC(C1)O2 [Example 210, N-(biphenyl-4-yl)-4-methoxy-3-[methyl(8-oxa-3-azabicyclo[3.2.1]oct-3-ylacetyl)amino]benzamide]
19 | 0.925 µM | 33 µM |  |  | COc1ccc(C(=O)Nc2ccc(-c3ccccc3)cc2)cc1NC(=O)[C@@H](C(C)C)N1CCOCC1 [Example 137, N-(biphenyl-4-yl)-4-methoxy-3-{[(2R)-3-methyl-2-(morpholin-4-yl)butanoyl]amino} benzamide]
20 | 3.85 µM | ≥ 50 µM |  |  | COc1ccc(NC(=O)c2ccc(-c3ccccc3)cc2)cc1NC(=O)CN1CCC(O)CC1 [Example 45, N-(3-{[(4-hydroxypiperidin-1-yl)acetyl]amino}-4-methoxyphenyl)biphenyl-4-carboxamide]
21 | 0.132 µM | ≥ 50 µM |  |  | NC(=O)c1ccc(C(=O)Nc2ccc(-c3ccccc3)cc2)cc1NC(=O)CN1CCOCC1 [Example 116, N^4-(Biphenyl-4-yl)-2-[(morpholin-4-ylacetyl)amino]terephthalamide]
22 | 2.25 µM | ≥ 50 µM |  |  | O=C(CN1CCOCC1)Nc1cc(C(=O)Nc2ccc(-c3ccccc3)cc2)ccc1CO [Example 204, N-(biphenyl-4-yl)-4-(hydroxymethyl)-3-[(morpholin-4-ylacetyl)amino]benzamide]
23 | 0.755 µM | ≥ 50 µM |  |  | COc1ccc(NC(=O)c2ccc(-c3ccc(CN)cc3)cc2)cc1NC(=O)CN1CCOCC1 [Example 120, 4′-(aminomethyl)-N-{4-methoxy-3-[(morpholin-4-ylacetyl)amino]phenyl}biphenyl-4-carboxamide]
24 | 0.21 µM | 9.8 µM |  |  | CC(C)(C)c1ccc(NC(=O)c2ccc(-c3ccccc3)cc2)cc1NC(=O)CN1CCOCC1 [Example 67, N-{4-tert-butyl-3-[(morpholin-4-ylacetyl)amino]phenyl}biphenyl-4-carboxamide]
25 | 1.9 µM | ≥ 50 µM |  |  | COc1ccc(C(=O)Nc2ccc(-c3ccccc3)cc2)cc1NC(=O)CN1CCC(OC)C1 (stereo not shown) [Example 202, N-(biphenyl-4-yl)-4-methoxy-3-{[(3-methoxypyrrolidin-1-yl)acetyl]amino}benzamide]
26 | 1.11 µM | ≥ 50 µM |  |  | COCCNCC(=O)Nc1cc(NC(=O)c2ccc(-c3ccccc3)cc2)ccc1OC [Example 42, N-(4-methoxy-3-{[N-(2-methoxyethyl)glycyl]amino}phenyl)biphenyl-4-carboxamide]
